9 molecules from patent EP0528699B1, “Saishin N derivatives, process for their preparation and anti-ulcer agents containing them” (TOKYO TANABE COMPANY LIMITED, priority 1991, dated 1993) can be followed below.

Like-named read-outs stand apart in the source and are kept apart here. Marks after values point to notes of the source that are not given here.

The test system of experiment [1] is Hydrochloric acid-Ethanol-Induced Ulcers. The experiment is described as follows: Hydrochloric acid-Ethanol-Induced Ulcers. The experiment is classed as in vivo, male Wister rats. Conditions: Rattus norvegicus, intraduodenal, read-out: Inhibition ratio(%); for inhibition in vivo at 10 mg/kg: dose 10 mg/kg intraduodenally one hour before hydrochloric acid - 60% ethanol. The gist of the method:
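Male Wistar rats (~200 g, n=6), fasted 24 h, received oral 150 mM HCl–60% ethanol (0.5 ml/100 g). Compound in PEG/0.5% CMC emulsion was given intraduodenally 1 or 3 h before. Fundic ulcer length scored 1 h after challenge; inhibition ratio calculated versus the non-administered group.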

Experiment [2] concerns Water-Immersion stress-Induced Ulcers. The experiment is described as follows: Water-Immersion stress-Induced Ulcers. It is filed as in vivo, male Wister rats. To be noted: Rattus norvegicus, po, 10 h, read-out: Water-Immersion Stress, inhibiting ratio; for inhibition in vivo at 20 mg/kg: dose 20 mg/kg orally 10 minutes before the exposure to stress; for inhibition in vivo at 50 mg/kg: dose 50 mg/kg orally 10 minutes before the exposure to stress. On the procedure: (§1) Experiments on Hydrochloric acid-Ethanol-Induced Ulcers, Aspirin-Induced Ulcers, Water-Immersion stress-Induced Ulcers, Shay's Ulcers and Serotonin-Induced Ulcers were carried out using male Wister rats weighing about 200g in groups of six. Experiments on Ischemia-Reperfusion -Induced Gastric Lesions were carried out using male SD rats weighing about 250g in groups of six. Other than for the tests on Ischemia-Reperfusion-Induced Gastric Lesions Models, the test compounds were prepared by mixing thoroughly with polyethyleneglycol and 0.5% sodium carboxymethyl cellulose solution and emulsifying vigorously. Activities against respective ulcer models were evaluated by an inhibiting ratio obtained by dividing the difference between the ulceration indexes of the non-administered group and the test compound group by the non-administered group.
Each rat which had been fasted for 15 hours was immobilized in a stress cage and immersed to chest depth in a water bath at 21°C. Each rat was slaughtered after 10 hours, a length of ulcer formed at the fundus gland area of stomach was measured and ulceration index was calculated based on the length. The test compound was administered orally 10 minutes before the exposure to stress.
(§2) The results of Aspirin-Induced Ulcers, Water-immersion stress-Induced Ulcers, Shay's Ulcers, Serotonin-induced Ulcers and Ischemia-Reperfusion-Induced Gastric lesions are shown in Table 3.

The test system of a further experiment is Shay's Ulcers. The experiment is described as follows: Shay's Ulcers. It is filed as in vivo, male Wister rats. Conditions: Rattus norvegicus, intraduodenal, 14 h, read-out: Shay, inhibiting ratio; for inhibition in vivo at 50 mg/kg: dose 50 mg/kg intraduodenally immediately after the ligation. On the procedure: as §1
In each rat which had been fasted for 48 hours, the pyloric end of stomach was ligated, and each was kept without giving any food or water for 14 hours. Each rat was then slaughtered, and area of ulcer formed in the forestomach was measured and ulceration inded was calculated based on the area. The test compound was administered intraduodenally immediately after the ligation.
as §2

For another experiment, the system named is Serotonin-Induced Ulcers. The experiment is described as follows: Serotonin-Induced Ulcers. It is filed as in vivo, male Wister rats. To be noted: Rattus norvegicus, 4.5 h, read-out: Serotonin, inhibiting ratio; for inhibition in vivo at 20 mg/kg: dose 20 mg/kg intraduodenally 30 minutes before Serotonin creatinine sulfate 30 mg/kg subcutaneously; for inhibition in vivo at 50 mg/kg: dose 50 mg/kg intraduodenally 30 minutes before Serotonin creatinine sulfate 30 mg/kg subcutaneously. The procedure: as §1
To each rat which had been fasted for 24 hours, 30 mg/kg of a solution of serotonin creatinine sulfate in a saline solution was administered subcutaneously. Each rat was then slaughtered after 4 and a half hours and area of gastric mucosal lesion formed facing the center line of greater curvature of the corpus ventriculi of stomach was measured and ulceration index was calculated based on the area. The test compound was administered intraduodenally 30 minutes before the administration of the Serotonin creatinine sulfate.
as §2

The test system of experiment [3] is Ischemia-Reperfusion-Induced Gastric Lesions. The experiment is described as follows: Ischemia-Reperfusion-Induced Gastric Lesions. It is filed as in vivo, male SD rats. Conditions: dose 40 mg/kg in dimethylsulfoxide from the caudal artery 30 minutes before beginning collection of the blood. The procedure:
as §1
Each rat which had been fasted for 24 hours was anesthetized intraperitoneally with Nembutal and immobilized on a constant temperature pad in a dorsal position. After tracheotomy was performed, blood pressure was measured via a transducer for blood pressure from a cannula inserted in right carotid. The abdomen was opened, and the gastroesophageal junction was ligated. A tube was then passed through the duodenostomy into the stomach and the gastric lumen was lavaged with warm saline. 1 ml of 0.1N hydrochloric acid per 100g body weight was instilled into the stomach via the gastric tube and the pylorus was ligated. When the blood pressure became stable, 2% of weight (w/w) of the blood was collected from a cannula inserted in the left carotid into a syringe containing a heparin added saline solution. After 20 minutes, the collecting blood was retransfused and each rat was left to stand for 20 minutes, and slaughtered and the area of gastric mucosal lesions was measured and ulceration index was calculated based on the area. The test compound was dissolved in dimethylsulfoxide and administered at a dose of 40 mg/kg from the caudal artery 30 minutes before beginning collection of the blood.
as §2

In a further experiment the test system is Aspirin-Induced Ulcers. The experiment is described as follows: Aspirin-Induced Ulcers. The experiment is classed as in vivo, male Wister rats. To be noted: Rattus norvegicus, 9 h, 5 minutes before 150 mg/kg of aspirin orally, read-out: Aspirin, inhibiting ratio; for inhibition in vivo at 50 mg/kg: dose 50 mg/kg intraduodenally at pylorus ligation. On the procedure: as §1
In each rat which had been fasted for 24 hours, the pyloric end of the stomach was ligated, and simultaneously the test compound was administered intraduodenally, and after 5 minutes, 150 mg/kg of aspirin was administered orally, respectively. After 9 hours from ligation, each rat was slaughtered, a length of ulcer formed at the fundus gland area of stomach was measured and ulceration index was calculated based on the length.
as §2

Setting [4] is: 3 h, Table 1, dose 20 mg/kg intraduodenally three hours before hydrochloric acid - 60% ethanol.

For `COC12CC(C)(C)C(O1)C(O)CC2C` (stereo not drawn) [AU105B, 2,4-cis-1-methoxy-2,6.6-trimethyl-8-oxabicyclo [3.2.1] octan-4-ol], the inhibition in vivo at 10 mg/kg in experiment [1] (1 h, Table 2) turned out to be 86%. The inhibition in vivo at 20 mg/kg in experiment [1] (setting [4]) was 63%; in experiment [2], 65%; in the experiment on Serotonin-Induced Ulcers, 80%. The inhibition in vivo at 50 mg/kg in the experiment with Shay's Ulcers came to 44%. Also, the “Ischemia-Reperfusion, inhibiting ratio” value in experiment [3] is on record as 52(40)*.

For the molecule `CC1=CC(O)C(OC(=O)C=Cc2ccccc2)C(C)(C)CC1=O` (stereo not drawn) [AU205, 5-cinnamoyloxy-4-hydroxy-2,6,6-trimethyl-2-cyclohepten-1-one], the inhibition in vivo at 20 mg/kg in experiment [1] (setting [4]) came out at 83%; in experiment [2], 42%; in the experiment on Serotonin-Induced Ulcers it was 80%. The inhibition in vivo at 50 mg/kg with Aspirin-Induced Ulcers turned out to be 53%; in the experiment on Shay's Ulcers, 50%.

As to `CC1=CC(OC(=O)c2ccc([N+](=O)[O-])cc2)C(O)C(C)(C)CC1=O` (stereo not drawn) [AU212, 5-hydroxy-4-(4-nitrobenzoyloxy)-2,6,6-trimethyl-2-cyclohepten-1-one], the inhibition in vivo at 20 mg/kg in experiment [1] (setting [4]) is 90%; in the experiment with Aspirin-Induced Ulcers (dose 20 mg/kg intraduodenally at pylorus ligation), 46%; in experiment [2], 48%; with Serotonin-Induced Ulcers, 71%. Besides, in the experiment with Shay's Ulcers, the inhibition in vivo at 50 mg/kg is 75%. The “Ischemia-Reperfusion, inhibiting ratio” value in experiment [3] is listed as 63(40)**.

On to `CC1=CC(OC(=O)c2ccc(N)cc2)C(O)C(C)(C)CC1=O` (stereo not drawn) [AU215, 4-(4-aminobenzoyloxy)-5-hydroxy-2,6,6-trimethyl-2-cyclohepten-1-one], for which the inhibition in vivo at 20 mg/kg was 56% in experiment [1] (setting [4]), 45% in experiment [2] and 81% in the experiment with Serotonin-Induced Ulcers. Further, the results for the inhibition in vivo at 50 mg/kg with Aspirin-Induced Ulcers and in the experiment on Shay's Ulcers were 66% and 73%, respectively. Besides, the “Ischemia-Reperfusion, inhibiting ratio” value in experiment [3] is 90(40)**.

Consider `COC1C(O)C=C(C)C(=O)CC1(C)C` (stereo not drawn) [AU222, 4-hydroxy-5-methoxy-2,6,6-trimethyl-2-cyclohepten-1-one], for which the inhibition in vivo at 20 mg/kg in experiment [1] (setting [4]) worked out at 54%; in experiment [2] it was 34%; in the experiment on Serotonin-Induced Ulcers, 84%. For the same molecule, the values for the inhibition in vivo at 50 mg/kg in the experiment on Aspirin-Induced Ulcers and with Shay's Ulcers were 28% and 58%, respectively.

In the case of `COC12CC(C)(C)C(O1)C(OC(=O)c1ccc(N)cc1)C=C2C` (stereo not drawn) [AU245, 4-(4-aminobenzoyloxy)-1-methoxy-2,6,6-trimethyl-8-oxabicyclo [3.2.1] oct-2-ene], the inhibition in vivo at 20 mg/kg in experiment [1] (setting [4]) is 58%; in experiment [2], 38%; in the experiment on Serotonin-Induced Ulcers, 38%. In addition, the inhibition in vivo at 50 mg/kg with Aspirin-Induced Ulcers came out at 63%; in the experiment with Shay's Ulcers, 35%. Moreover, in experiment [3], the “Ischemia-Reperfusion, inhibiting ratio” value is recorded as 93(40)**.

For `COC1C=C(C)C(=O)CC(C)(C)C1OC(=O)c1ccc(N)cc1N` (stereo not drawn) [AU408, 5-(2,4-diaminobenzoyloxy)-4-methoxy-2,6,6-trimethyl-2-cyclohepten-1-one], the results for the inhibition in vivo at 20 mg/kg (in experiment [1] (setting [4]); in the experiment with Serotonin-Induced Ulcers) were 58% and 44%, respectively. The inhibition in vivo at 50 mg/kg is 73% with Aspirin-Induced Ulcers, 56% in experiment [2] and 43% with Shay's Ulcers. Further, in experiment [3], the “Ischemia-Reperfusion, inhibiting ratio” value is on record as 75(40)**.

With `CC1=CC(OC(=O)c2cccn2C)C(O)C(C)(C)CC1=O` (stereo not drawn) [AU501, 4-(1-methyl-2-pyrrolylcarbonyloxy)-5-hydroxy-2,6,6-trimethyl-2-cyclohepten-1-one], in experiment [1] (setting [4]), the inhibition in vivo at 20 mg/kg is 56%. The inhibition in vivo at 50 mg/kg with Aspirin-Induced Ulcers stood at 30%; in experiment [2], 22%; in the experiment with Serotonin-Induced Ulcers, 55%. Moreover, in experiment [3], the “Ischemia-Reperfusion, inhibiting ratio” value is listed as 77(40)**.

As to `CC1=CC(O)C(O)C(C)(C)CC1=O` (stereo not drawn) [Saishin N, 4,5-dihydroxy-2,6,6-trimethyl-2-cycloheptene-1-one], the inhibition in vivo at 10 mg/kg in experiment [1] (1 h, Table 2) turned out to be 35%. Moreover, the inhibition in vivo at 20 mg/kg in experiment [1] (1 h, Table 2, dose 20 mg/kg intraduodenally one hour before hydrochloric acid - 60% ethanol) came to 88%; in experiment [1] (setting [4]) it was 15%; in the experiment on Serotonin-Induced Ulcers, 13%. The inhibition in vivo at 50 mg/kg in experiment [1] (3 h, Table 1, dose 50mg/kg intraduodenally three hours before hydrochloric acid - 60% ethanol) turned out to be 83%; in the experiment with Aspirin-Induced Ulcers, 52%; in experiment [2], 49%; with Serotonin-Induced Ulcers, 36%. The inhibition in vivo at 100 mg/kg in the experiment with Aspirin-Induced Ulcers (dose 100 mg/kg intraduodenally at pylorus ligation) stood at 60%; in experiment [2] (dose 100 mg/kg orally 10 minutes before the exposure to stress), 62%; with Shay's Ulcers (dose 100 mg/kg intraduodenally immediately after the ligation), 49%. Moreover, in the experiment with Shay's Ulcers (dose 300 mg/kg intraduodenally immediately after the ligation), the inhibition in vivo at 300 mg/kg was 58%.
